In ChEMBL document CHEMBL1128136, “and -N-[(1-benzyl-1H-imidazol-5-yl)-alkyl]-amino acids as angiotensin II AT-1 antagonists” (Bioorg Med Chem Lett, 1995):

Columns and labels:
[1] = molecular target: T1, Angiotensin II receptor (AT-1) type-1 (Rattus norvegicus, UniProt P29089+P25095); experiment: Compound was tested for inhibition of 125 I-Angiotensin II specific binding to rat mesenteric arteries; type: protein assay
T1 sequence (P29089 whole entry): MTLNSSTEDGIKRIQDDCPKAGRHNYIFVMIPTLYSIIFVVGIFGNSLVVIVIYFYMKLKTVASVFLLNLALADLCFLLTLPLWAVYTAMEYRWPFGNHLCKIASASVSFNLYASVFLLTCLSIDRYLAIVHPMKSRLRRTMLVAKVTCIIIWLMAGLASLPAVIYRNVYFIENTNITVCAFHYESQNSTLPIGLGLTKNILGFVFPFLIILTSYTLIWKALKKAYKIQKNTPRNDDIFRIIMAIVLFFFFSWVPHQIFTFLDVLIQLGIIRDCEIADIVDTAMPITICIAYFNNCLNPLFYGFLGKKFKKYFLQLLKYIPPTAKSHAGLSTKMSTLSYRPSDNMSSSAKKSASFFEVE
T1 sequence (P25095 whole entry): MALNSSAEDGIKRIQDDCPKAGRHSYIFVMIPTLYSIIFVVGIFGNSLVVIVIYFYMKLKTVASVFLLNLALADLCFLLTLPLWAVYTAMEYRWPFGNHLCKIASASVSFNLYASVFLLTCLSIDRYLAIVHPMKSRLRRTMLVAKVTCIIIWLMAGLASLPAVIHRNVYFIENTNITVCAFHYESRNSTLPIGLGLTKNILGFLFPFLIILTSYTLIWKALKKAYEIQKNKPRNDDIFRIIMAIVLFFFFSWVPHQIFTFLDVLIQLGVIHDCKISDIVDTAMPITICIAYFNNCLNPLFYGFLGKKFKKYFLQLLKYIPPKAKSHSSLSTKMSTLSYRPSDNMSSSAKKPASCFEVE

Oryctolagus cuniculus [2] = organism: Oryctolagus cuniculus; experiment: Compound was tested for inhibition of Angiotensin II-induced vasoconstriction of rabbit aorta.; type: functional
[3] = molecular target: T2, Type-1 angiotensin II receptor (Homo sapiens, UniProt P30556); experiment: Tested for inhibition of Angiotensin II specific binding to Angiotensin II receptor, type 1 in the recombinant human AT-1 receptor expressed in LhAT-1D6 cells; type: cell-based
T2 sequence (P30556 whole entry): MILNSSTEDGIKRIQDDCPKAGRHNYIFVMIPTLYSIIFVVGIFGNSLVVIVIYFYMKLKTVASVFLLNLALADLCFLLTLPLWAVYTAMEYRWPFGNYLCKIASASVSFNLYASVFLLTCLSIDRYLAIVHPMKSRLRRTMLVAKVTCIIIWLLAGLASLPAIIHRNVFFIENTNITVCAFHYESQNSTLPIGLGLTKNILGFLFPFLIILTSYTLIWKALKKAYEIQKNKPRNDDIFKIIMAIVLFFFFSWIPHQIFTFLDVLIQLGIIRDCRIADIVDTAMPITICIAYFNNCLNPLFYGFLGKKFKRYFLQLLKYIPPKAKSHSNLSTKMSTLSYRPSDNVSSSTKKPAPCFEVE

Oryctolagus cuniculus [4] = organism: Oryctolagus cuniculus; experiment: Compound was tested for Non-competitive inhibition ofAngiotensin II -induced vasoconstriction of rabbit aorta.; type: functional

| Compound | IC50 [1] | Kb (Oryctolagus cuniculus [2]) | IC50 [3] | Kb (Oryctolagus cuniculus [4]) |
| --- | --- | --- | --- | --- |
| CCCCc1ncc(CN[C@H](Cc2ccccc2)C(=O)O)n1Cc1ccc(C(=O)O)cc1 | 3.8 nM | 3.6 nM | – | – |
| CCCCc1ncc(CN[C@@H](Cc2c[nH]c3ccccc23)C(=O)O)n1Cc1ccc(C(=O)O)cc1 | – | 885 nM | 48.3 nM | – |
| CCCCc1ncc(CN[C@H](C(=O)O)C(C)c2ccccc2)n1Cc1ccc(C(=O)O)cc1 (stereo partly drawn) | 176 nM | 117 nM | – | – |
| CCCCc1ncc(CNCC(=O)O)n1Cc1ccc(C(=O)O)cc1 | – | 335 nM | 298 nM | – |
| CCCCc1ncc(CN[C@@H](Cc2cccs2)C(=O)O)n1Cc1ccc(C(=O)O)cc1 | 673 nM | 63 nM | – | – |
| CCCCc1ncc(CN(CC(=O)O)Cc2cccs2)n1Cc1ccc(C(=O)O)cc1 | 169 nM | 2.4 nM | – | – |
| CCCCc1ncc(CN[C@H](Cc2cccs2)C(=O)O)n1Cc1ccc(C(=O)O)cc1 | 36.7 nM | 5 nM | – | – |
| CCCCc1ncc(CN[C@H](Cc2c[nH]c3ccccc23)C(=O)O)n1Cc1ccc(C(=O)O)cc1 | – | 48 nM | 2.9 nM | – |
| CCCCc1ncc(CN[C@@H](C(=O)O)C(C)c2ccccc2)n1Cc1ccc(C(=O)O)cc1 (stereo partly drawn) | 28 nM | – | – | 0.6 nM |
| CCCCc1ncc(CN[C@@H](Cc2ccccc2)C(=O)O)n1Cc1ccc(C(=O)O)cc1 | 517 nM | 125 nM | – | – |
| CCCCc1ncc(CN(CC(=O)O)Cc2ccccc2)n1Cc1ccc(C(=O)O)cc1 | 31 nM | 11 nM | – | – |
| CCCCc1ncc(/C=C(\Cc2cccs2)C(=O)O)n1Cc1ccc(C(=O)O)cc1 [EPROSARTAN] | – | 0.21 nM | – | – |
